Reference: patent US6376497B1, “Antifungal azole derivatives having a fluorinated vinyl group and process for preparing same” (Korea Research Institute of Chemical Technology, priority 1999, dated 2002)

Assays:
Assay in all cases: In vitro antifungal activity, microbroth dilution MIC
Type in all cases: cell-based
[1] = tested on: Cryptococcus neoformans B. 42419; details: Cry. neoformans B. 42419, RPMI-1640, 35° C., 4 to 48 hours
Experimental: (§1) In vitro antifungal activities of the inventive antifungal compounds were evaluated using the test strains shown in Table VIII by the following microbroth dilution method which is a modified version of the procedure recommended by National Committee for Clinical Laboratory Standards(see National Committee for Clinical Laboratory Standards, 1992, Reference methods for broth dilution antifungal susceptibility testing of yeasts, Proposed standard M27-P, National Committee for clinical laboratory standards, Villanova, Pa; and National Committee for Clinical Laboratory Standards, 1995, Reference methods for broth dilution antifungal susceptibility testing of yeasts. Tentative standard M27-T, National Committee for clinical laboratory standards, Villanova, Pa).
(§2) Sabourad Dextrose Agar(Difco) was used as a culture medium, and RPMI-1640 broth(Sigma. Co. w/L-glutamine, wo/NaHCO3)(0.165 M MOPS, pH 7.0), as a dilution medium.
(§3) Each of the test strains were subcultured in Sabourad Dextrose Agar medium twice and a stain sample was taken from prominent colonies and suspended in sterile physiological saline solution in a cap tube. The turbidity of the suspension was adjusted to that of the Mcfarland 0.5 standard sample(approximately 10^6 CFU/ml). Then the suspension was diluted 500-fold with sterile RPMI-1640 liquid medium to 2×10^3 CFU/ml.
(§4) Each of the test compounds(the compounds obtained in Examples 1 to 150 and comparative compounds, i.e., fluconazole(FCZ) and itraconazole (ICZ)), was dissolved in DMSO to give a stock solution having a concentration of 4000 μg/ml and the stock solution was successively diluted to obtain test solutions having test compound concentrations of 200, 100, 50, 25, 12.5, 6.25, 3.13, 1.56, 0.78, 0.39, 0.20 and 0.10 μg/ml, respectively.
(§5) 0.1 ml portion of the test solutions were added to the wells of a sterile 96 well plate. Then, 0.1 ml portion of each of the test strain solutions were added successively to the wells and the plate was incubated at 35° C. for 4 to 48 hours.
(§6) Minimal inhibitory concentration(MIC) of each compound was defined as the concentration of the test compound where no growth of the strain could be observed.

[2] = tested on: Trichophyton mentagrophytes A. 9129; details: T. mentagrophytes A. 9129, RPMI-1640, 35° C., 4 to 48 hours
Experimental: as §1, §2, §3, §4, §5, §6

[3] = tested on: Candida tropicalis A. 13803; details: C. tropicalis A. 13803, RPMI-1640, 35° C., 4 to 48 hours
Experimental: as §1, §2, §3, §4, §5, §6

[4] = tested on: Torulopsis glabrata B. 16205; details: T. glabrata B. 16205, RPMI-1640, 35° C., 4 to 48 hours
Experimental: as §1, §2, §3, §4, §5, §6

[5] = tested on: Aspergillus furnigatus B. 19119; details: A furnigatus B. 19119, RPMI-1640, 35° C., 4 to 48 hours
Experimental: as §1, §2, §3, §4, §5, §6

[6] = tested on: Trichophyton mentagrophytes B. 32663; details: T. mentagrophytes B. 32663, RPMI-1640, 35° C., 4 to 48 hours
Experimental: as §1, §2, §3, §4, §5, §6

[7] = tested on: Candida albicans IFO. 1385; details: C. albicans IFO. 1385, RPMI-1640, 35° C., 4 to 48 hours
Experimental: as §1, §2, §3, §4, §5, §6

[8] = tested on: Candida parapsitosis A. 7330; details: C. parapsitosis A. 7330, RPMI-1640, 35° C., 4 to 48 hours
Experimental: as §1, §2, §3, §4, §5, §6

[9] = tested on: Aspergillus niger A. 16404; details: A. niger A. 16404, RPMI-1640, 35° C., 4 to 48 hours
Experimental: as §1, §2, §3, §4, §5, §6

Candida albicans C1-2 = details: C. albicans C1-2, RPMI-1640, 35° C., 4 to 48 hours
Experimental: as §1, §2, §3, §4, §5, §6

Candida krusei K. 11655 = details: C. krusei K. 11655, RPMI-1640, 35° C., 4 to 48 hours
Experimental: as §1, §2, §3, §4, §5, §6

[10] = tested on: Cryptococcus neoformans IFM. 40092; details: Cry. neoformans IFM. 40092, RPMI-1640, 35° C., 4 to 48 hours
Experimental: as §1, §2, §3, §4, §5, §6

[11] = tested on: Candida pseudotropicalis K. 11658; details: C. pseudotropicalis K. 11658, RPMI-1640, 35° C., 4 to 48 hours
Experimental: as §1, §2, §3, §4, §5, §6

[12] = tested on: Candida albicans A. 10231; details: C. albicans A. 10231, RPMI-1640, 35° C., 4 to 48 hours
Experimental: as §1, §2, §3, §4, §5, §6

[13] = tested on: Cryptococcus neoformans A. 34144; details: Cry. neoformans A. 34144, RPMI-1640, 35° C., 4 to 48 hours
Experimental: as §1, §2, §3, §4, §5, §6

Compound | Minimal inhibitory concentration (MIC) [1] | Minimal inhibitory concentration (MIC) [2] | Minimal inhibitory concentration (MIC) [3] | Minimal inhibitory concentration (MIC) [4] | Minimal inhibitory concentration (MIC) [5] | Minimal inhibitory concentration (MIC) [6] | Minimal inhibitory concentration (MIC) [7] | Minimal inhibitory concentration (MIC) [8] | Minimal inhibitory concentration (MIC) [9] | Minimal inhibitory concentration (MIC) (Candida albicans C1-2) | Minimal inhibitory concentration (MIC) (Candida krusei K. 11655) | Minimal inhibitory concentration (MIC) [10] | Minimal inhibitory concentration (MIC) [11] | Minimal inhibitory concentration (MIC) [12] | Minimal inhibitory concentration (MIC) [13]
Cc1ccc(C=C(F)OCC2COC(Cn3ccnc3)(c3ccc(F)cc3F)O2)cc1 (mixture of isomers) [Ex. 38] | 1.56 µg/mL | 6.25 µg/mL | 25.0 µg/mL | 6.25 µg/mL | 12.5 µg/mL | 1.56 µg/mL | 0.39 µg/mL | 12.5 µg/mL | 50.0 µg/mL | 12.5 µg/mL | 25.0 µg/mL | 0.20 µg/mL | 12.5 µg/mL | 12.5 µg/mL | 1.56 µg/mL
CCc1ccc(C=C(F)OCC2COC(Cn3ccnc3)(c3ccc(F)cc3F)O2)cc1 (mixture of isomers) [Ex. 39] | 1.56 µg/mL | 6.25 µg/mL | 25.0 µg/mL | 6.25 µg/mL | 12.5 µg/mL | 1.56 µg/mL | 0.39 µg/mL | 12.5 µg/mL | 50.0 µg/mL | 12.5 µg/mL | 25.0 µg/mL | 0.20 µg/mL | 12.5 µg/mL | 12.5 µg/mL | 1.56 µg/mL
Cc1ccc(C=C(F)OCC2COC(Cn3ccnc3)(c3ccc(F)cc3F)O2)cc1C (mixture of isomers) [Ex. 40] | 1.56 µg/mL | 6.25 µg/mL | 25.0 µg/mL | 6.25 µg/mL | 12.5 µg/mL | 1.56 µg/mL | 0.78 µg/mL | 25.0 µg/mL | 25.0 µg/mL | 12.5 µg/mL | 25.0 µg/mL | 0.20 µg/mL | 25.0 µg/mL | 12.5 µg/mL | 1.56 µg/mL
Cc1cc(C)cc(C=C(F)OCC2COC(Cn3ccnc3)(c3ccc(F)cc3F)O2)c1 (mixture of isomers) [Ex. 41] | 3.13 µg/mL | 6.25 µg/mL | 25.0 µg/mL | 6.25 µg/mL | 6.25 µg/mL | 3.13 µg/mL | 0.78 µg/mL | 100 µg/mL | 25.0 µg/mL | 12.5 µg/mL | 50.0 µg/mL | 0.78 µg/mL | 25.0 µg/mL | 12.5 µg/mL | 3.13 µg/mL
Cc1cc(C)c(C=C(F)OCC2COC(Cn3ccnc3)(c3ccc(F)cc3F)O2)cc1C (mixture of isomers) [Ex. 42] | 0.78 µg/mL | 6.25 µg/mL | 25.0 µg/mL | 6.25 µg/mL | 12.5 µg/mL | 1.56 µg/mL | 0.78 µg/mL | 25.0 µg/mL | 100 µg/mL | 12.5 µg/mL | 25.0 µg/mL | ≦0.10 μg/ml | 25.0 µg/mL | 12.5 µg/mL | 0.78 µg/mL
COc1cccc(C=C(F)OCC2COC(Cn3ccnc3)(c3ccc(F)cc3F)O2)c1 (mixture of isomers) [Ex. 43] | 1.56 µg/mL | 6.25 µg/mL | 50.0 µg/mL | 6.25 µg/mL | 12.5 µg/mL | 1.56 µg/mL | 0.78 µg/mL | 12.5 µg/mL | >100 µg/mL | 25.0 µg/mL | 12.5 µg/mL | 0.39 µg/mL | 6.25 µg/mL | 25.0 µg/mL | 1.56 µg/mL
